Experimental data as given in patent US11492345B2, “Compounds and their methods of use” (Praxis Precision Medicines, Inc., priority 2017, dated 2022).

These compounds were tested against T1, human Nav1.6 (hNav1.6) (Homo sapiens, UniProt Q9UQD0) (assay: Modulation of late sodium current (INaL), PatchXpress electrophysiology). Settings: HEK293; 1 μM compound; HEK-293 cells expressing recombinant human Nav channel; late current evoked by 300 nM ATX-II; steady-state inhibition; read-out: INaL v1.6 (1 μM, % Inhibition).
T1 construct: expressed in transfected cells; host or cells: HEK-293 (G418 selection)
Format: cell-based
Protocol: Functional characterization of exemplary compounds to modulate INaL expressed by the Nav1.6 voltage-gated sodium channel was accomplished using the PatchXpress™ high throughput electrophysiology platform (Molecular Devices, Sunnyvale, Calif.). HEK-293 cells expressing recombinant, human Nav1.6 (hNav1.6) were grown in DMEM/high-glucose Dulbecco's modified, 10% FBS, 2 mM sodium pyruvate, 10 mM HEPES and 400 μg/mL G418. Cells were grown to 50%-80% confluency prior to harvesting. Trypsinized cells were washed, allowed to recover for 1 hour and then resuspended in extracellular recording solution at a concentration of 1×10^6 cells/ml. The onboard liquid handling facility of the PatchXpress was used for dispensing cells and applying test compounds. Nav late currents were evoked by the application of 300 nM ATX-II. INaL was evoked by depolarizing pulses to 0 mV for 200 ms from a non-inactivating holding potential (e.g., −120 mV) at a frequency of 0.1 Hz. INaL amplitude and stability were determined by analyzing the mean current amplitude over the final 20 ms of the test pulse. […] Percent steady-state inhibition of INaL was calculated as: [(INaL_compound)/(INaL_control)]*100, where INaL_compound and INaL_control represent INaL recorded in the presence or absence of compound, respectively.

T1 sequence (Q9UQD0 whole entry): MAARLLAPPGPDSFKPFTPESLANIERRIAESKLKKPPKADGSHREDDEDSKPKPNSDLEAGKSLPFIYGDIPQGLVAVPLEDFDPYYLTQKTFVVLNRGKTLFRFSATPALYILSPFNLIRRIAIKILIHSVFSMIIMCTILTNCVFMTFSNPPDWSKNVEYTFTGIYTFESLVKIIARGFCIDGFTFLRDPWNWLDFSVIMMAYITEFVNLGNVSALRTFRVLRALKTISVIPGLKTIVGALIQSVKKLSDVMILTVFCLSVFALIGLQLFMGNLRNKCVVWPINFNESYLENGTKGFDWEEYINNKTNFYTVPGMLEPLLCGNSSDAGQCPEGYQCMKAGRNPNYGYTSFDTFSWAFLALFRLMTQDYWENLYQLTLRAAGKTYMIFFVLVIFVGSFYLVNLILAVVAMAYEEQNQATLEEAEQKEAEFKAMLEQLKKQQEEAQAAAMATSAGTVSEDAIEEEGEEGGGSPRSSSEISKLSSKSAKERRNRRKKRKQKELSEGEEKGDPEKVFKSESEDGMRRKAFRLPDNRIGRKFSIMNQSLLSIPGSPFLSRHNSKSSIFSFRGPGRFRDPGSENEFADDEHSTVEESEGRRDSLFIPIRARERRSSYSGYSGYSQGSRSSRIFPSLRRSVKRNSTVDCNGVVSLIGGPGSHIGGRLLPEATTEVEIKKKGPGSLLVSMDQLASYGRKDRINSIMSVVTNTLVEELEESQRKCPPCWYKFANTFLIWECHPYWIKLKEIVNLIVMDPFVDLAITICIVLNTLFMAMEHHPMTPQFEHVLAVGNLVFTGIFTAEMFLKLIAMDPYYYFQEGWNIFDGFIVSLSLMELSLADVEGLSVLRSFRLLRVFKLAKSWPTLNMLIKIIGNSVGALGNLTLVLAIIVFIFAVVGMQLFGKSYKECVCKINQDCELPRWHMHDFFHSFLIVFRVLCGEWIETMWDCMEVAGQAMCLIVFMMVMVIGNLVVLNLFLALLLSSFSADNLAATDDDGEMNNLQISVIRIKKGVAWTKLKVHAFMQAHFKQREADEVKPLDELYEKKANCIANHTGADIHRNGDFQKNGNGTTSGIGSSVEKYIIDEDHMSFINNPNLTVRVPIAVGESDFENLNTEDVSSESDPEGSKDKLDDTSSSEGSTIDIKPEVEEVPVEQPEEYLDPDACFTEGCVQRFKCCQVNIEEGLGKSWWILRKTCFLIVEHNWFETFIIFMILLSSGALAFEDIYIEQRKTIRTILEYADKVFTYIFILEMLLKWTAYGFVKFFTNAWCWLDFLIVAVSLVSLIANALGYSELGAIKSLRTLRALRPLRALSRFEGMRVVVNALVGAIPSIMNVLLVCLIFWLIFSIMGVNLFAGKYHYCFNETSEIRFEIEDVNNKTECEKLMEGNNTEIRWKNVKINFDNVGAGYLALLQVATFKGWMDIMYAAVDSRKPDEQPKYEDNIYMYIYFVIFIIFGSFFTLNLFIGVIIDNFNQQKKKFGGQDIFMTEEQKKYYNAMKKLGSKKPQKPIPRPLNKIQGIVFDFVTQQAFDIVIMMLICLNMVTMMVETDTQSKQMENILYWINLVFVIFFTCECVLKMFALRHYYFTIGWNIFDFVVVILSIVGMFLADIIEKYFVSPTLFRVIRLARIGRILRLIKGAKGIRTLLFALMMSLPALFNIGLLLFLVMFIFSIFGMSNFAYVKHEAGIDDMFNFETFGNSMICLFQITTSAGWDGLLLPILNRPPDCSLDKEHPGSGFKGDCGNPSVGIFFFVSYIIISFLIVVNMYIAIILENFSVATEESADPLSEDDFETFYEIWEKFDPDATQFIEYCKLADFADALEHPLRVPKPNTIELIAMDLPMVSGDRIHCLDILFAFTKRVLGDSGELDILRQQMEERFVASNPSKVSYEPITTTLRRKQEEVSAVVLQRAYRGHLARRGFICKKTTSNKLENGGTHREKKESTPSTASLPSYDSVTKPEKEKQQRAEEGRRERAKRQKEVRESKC

| Compound | inhibition at 1 µM [%] |
| --- | --- |
| O=c1oc2ccc(-c3ccc(OC(F)(F)F)cc3)nc2n1CCc1cncnc1 [Compound 124] | > 70 |
| C[C@@H](Cn1c(=O)oc2ccc(-c3ccc(OC(F)(F)F)cc3)nc21)c1ncccn1 (single isomer, unassigned) [Compound 150] | 30 to 70 |
| Cc1nc(Cn2c(=O)oc3ccc(-c4ccc(OC(F)(F)F)cc4)nc32)no1 [Compound 162] | > 70 |
| O=c1oc2ccc(-c3ccc(OC(F)(F)F)cc3)nc2n1C[C@H]1CCCO1 (single isomer, unassigned) [Compound 65] | 30 to 70 |
| O=c1oc2ccc(-c3ccc(OC(F)(F)F)cc3)nc2n1C[C@H]1CCCCO1 (single isomer, unassigned) [Compound 54] | 30 to 70 |
| CCn1c(=O)oc2ccc(-c3cnc(OCC(F)(F)F)c(F)c3)nc21 [Compound 71] | < 30 |
| O=C1CCCN1CCn1c(=O)oc2ccc(-c3ccc(OC(F)(F)F)cc3)nc21 [Compound 142] | < 30 |
| Cn1cnnc1Cn1c(=O)oc2ccc(-c3ccc(OC(F)(F)F)cc3)nc21 [Compound 163] | < 30 |
| Cc1noc(Cn2c(=O)oc3ccc(-c4ccc(OC(F)(F)F)cc4)nc32)n1 [Compound 161] | > 70 |
| Cc1cc(OC(F)(F)F)ccc1-c1ccc2oc(=O)n(CCc3ncccn3)c2n1 [Compound 121] | 30 to 70 |
| Cc1nnc(CCN2C(=O)Cc3ccc(-c4ccc(OC(F)(F)F)cc4)cc32)o1 [Compound 21] | 30 to 70 |
| O=c1oc2ccc(-c3ccc(OC(F)(F)F)cc3)nc2n1Cc1cn[nH]c1 [Compound 165] | 30 to 70 |
| Cc1cc(OC(F)(F)F)ccc1-c1ccc2oc(=O)n(CC(=O)N3CCCC3)c2n1 [Compound 144] | < 30 |
| CCn1c(=O)oc2ccc(-c3cnc(OCC(F)(F)F)c(F)c3)cc21 [Compound 96] | 30 to 70 |
| O=C1Cc2ccc(-c3ccc(OC(F)(F)F)cc3)cc2N1CC(F)(F)F [Compound 4] | > 70 |
| Cc1cc(Cn2c(=O)oc3ccc(-c4ccc(OC(F)(F)F)cc4)nc32)on1 [Compound 160] | > 70 |
| O=c1oc2ccc(-c3ccc(OC(F)(F)F)cc3)nc2n1C[C@@H]1CCCO1 (single isomer, unassigned) [Compound 64] | > 70 |
| O=c1oc2ncc(-c3ccc(OC(F)(F)F)cc3)cc2n1Cc1ncccn1 [Compound 49] | < 30 |
| Cc1oncc1Cn1c(=O)oc2ccc(-c3ccc(OC(F)(F)F)cc3)nc21 [Compound 154] | > 70 |
| O=c1oc2ccc(-c3ccc(OC(F)F)cc3)nc2n1CCc1ncccn1 [Compound 136] | < 30 |
| Cn1cnc(Cn2c(=O)oc3ccc(-c4ccc(OC(F)(F)F)cc4)nc32)n1 [Compound 157] | 30 to 70 |
| O=c1oc2ccc(-c3ccc(OC(F)(F)F)cc3)nc2n1C[C@@H]1CCCCO1 (single isomer, unassigned) [Compound 55] | 30 to 70 |
| O=c1oc2ccc(-c3ccc(OC(F)(F)F)cc3)nc2n1Cc1cnccn1 [Compound 143] | > 70 |
| O=c1oc2ccc(-c3ccc(OC(F)(F)F)cc3)nc2n1C[C@H]1CC1(F)F (single isomer, unassigned) [Compound 106] | > 70 |

Further lines, results first:

| inhibition at 1 µM [%] | Compound |
| --- | --- |
| > 70 | O=c1oc2ccc(-c3ccc(OC(F)(F)F)cc3)cc2n1Cc1cncnc1 [Compound 84] |
| > 70 | CCn1c(=O)oc2ccc(-c3ccc(OC(F)(F)F)cc3)nc21 [Compound 76] |
| 30 to 70 | O=c1oc2ccc(-c3ccc(OC(F)(F)F)cc3)nc2n1CCCO [Compound 90] |
| > 70 | O=c1oc2ccc(-c3ccc(OC(F)(F)F)cc3)cc2n1C[C@@H]1CCCCO1 (single isomer, unassigned) [Compound 58] |
| > 70 | O=c1oc2ccc(-c3ccc(OC(F)(F)F)cc3)cc2n1CC1CCOCC1 [Compound 56] |
| 30 to 70 | O=c1oc2ccc(-c3ccc(OC(F)(F)F)cc3)cc2n1C[C@H]1CCCCO1 (single isomer, unassigned) [Compound 59] |
| 30 to 70 | CO[C@@H]1CCN(C(=O)Cn2c(=O)oc3ccc(-c4ccc(OC(F)(F)F)cc4)cc32)C1 [Compound 126] |
| > 70 | O=c1oc2ccc(-c3ccc(OC(F)(F)F)cc3)cc2n1C[C@H]1CCCOC1 (single isomer, unassigned) [Compound 73] |
| < 30 | CNC(=O)Cn1c(=O)oc2ccc(-c3ccc(OC(F)(F)F)cc3)cc21 [Compound 41] |
| > 70 | O=C(CCn1c(=O)oc2ccc(-c3ccc(OC(F)(F)F)cc3)cc21)N1CCCC1 [Compound 26] |
| > 70 | O=c1oc2ccc(-c3ccc(OC(F)(F)F)cc3)nc2n1CC1COC1 [Compound 102] |
| 30 to 70 | O=c1oc2ncc(-c3ccc(OC(F)(F)F)cc3)cc2n1Cc1ccccc1 [Compound 34] |
| < 30 | CC(C(=O)N1CCCC1)n1c(=O)oc2ccc(-c3ccc(OC(F)(F)F)cc3)cc21 (stereo not drawn) [Compound 45] |
| > 70 | O=c1oc2ccc(-c3ccc(OC(F)(F)F)cc3)cc2n1CCc1cnccn1 [Compound 120] |
| > 70 | O=c1oc2ccc(-c3ccc(OC(F)(F)F)cc3)cc2n1CC1CC1 [Compound 12] |
| 30 to 70 | O=c1oc2ccc(-c3ccc(OC(F)(F)F)cc3)cc2n1CC(F)(F)F [Compound 2] |
| > 70 | O=c1oc2ccc(-c3ccc(OC(F)(F)F)cc3)cc2n1CC1CCCOC1 (stereo not drawn) [Compound 72] |
| < 30 | COCCn1c(=O)oc2ccc(-c3ccc(OC(F)(F)F)cc3)cc21 [Compound 9] |

| inhibition at 1 µM [%] | Compound |
| --- | --- |
| > 70 | C[C@@H](O)CCn1c(=O)oc2ccc(-c3ccc(OC(F)(F)F)cc3)nc21 (single isomer, unassigned) [Compound 100] |
| 30 to 70 | O=C1CCCN1CCCn1c(=O)oc2ccc(-c3ccc(OC(F)(F)F)cc3)cc21 [Compound 30] |
| 30 to 70 | Cn1c(=O)n(CC(F)(F)F)c2cc(-c3ccc(OC(F)(F)F)cc3)ccc21 [Compound 32] |
| 30 to 70 | CCN(C)C(=O)Cn1c(=O)oc2ccc(-c3ccc(OC(F)(F)F)cc3)cc21 [Compound 85] |
| < 30 | O=c1oc2ncc(-c3ccc(OC(F)(F)F)cc3)cc2n1CC(F)(F)F [Compound 22] |
| > 70 | O=c1oc2ccc(-c3ccc(OC(F)(F)F)cc3)cc2n1Cc1ccncn1 [Compound 132] |
| < 30 | O=C(O)Cn1c(=O)oc2ccc(-c3ccc(OC(F)(F)F)cc3)cc21 [Compound 16, 2-[2-oxo-5-[4-(trifluoromethoxy)phenyl]-1,3-benzoxazol-3-yl]acetic acid] |
| > 70 | O=c1oc2ccc(-c3ccc(OC(F)(F)F)cc3)nc2n1CC(F)F [Compound 86] |
| 30 to 70 | Cc1nnc(Cn2c(=O)oc3ccc(-c4ccc(OC(F)(F)F)cc4)cc32)o1 [Compound 51] |
| > 70 | CCN(CC)C(=O)Cn1c(=O)oc2ccc(-c3ccc(OC(F)(F)F)cc3)cc21 [Compound 39] |
| > 70 | C[C@@H](O)CCn1c(=O)oc2ccc(-c3ccc(OC(F)(F)F)cc3)cc21 [Compound 97] |
| > 70 | CCn1c(=O)oc2ccc(-c3ccc(OC(F)(F)F)cc3)cc21 [Compound 11] |
| > 70 | O=c1oc2ccc(-c3ccc(OC(F)(F)F)cc3)nc2n1CC(F)(F)F [Compound 33] |
| < 30 | Cn1c(=O)oc2ncc(-c3ccc(OC(F)(F)F)cc3)cc21 [Compound 43] |
| > 70 | Cc1nc(Cn2c(=O)oc3ccc(-c4ccc(OC(F)(F)F)cc4)nc32)co1 [Compound 159] |
| > 70 | O=c1oc2ccc(-c3ccc(OC(F)(F)F)cc3)cc2n1CCc1cncnc1 [Compound 117] |
| 30 to 70 | O=C(Cn1c(=O)oc2ccc(-c3ccc(OC(F)(F)F)cc3)cc21)N1CCCC1 [Compound 17] |
| 30 to 70 | COC[C@@H]1CCN(C(=O)Cn2c(=O)oc3ccc(-c4ccc(OC(F)(F)F)cc4)cc32)C1 (single isomer, unassigned) [Compound 138] |
